Legend:
Test in all cases: COMPOUND A In Vitro Assay
Type in all cases: cell-based
143B = conditions: Homo sapiens, Bone, TP53 Mutant
Method in brief: (§1)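 The human cancer cell lines, spanning many tumour origins, were characterised by exome and RNA sequencing at baseline and then screened against the MDM2 antagonist COMPOUND A. Response is expressed as IC50.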

786-O = conditions: Homo sapiens, 786-0, Kidney, TP53 Mutant
Method in brief: as §1

A-431 = conditions: Homo sapiens, Skin, epidermis, TP53 Mutant
Method in brief: as §1

BT-20 = conditions: Homo sapiens, Breast, mammary gland, TP53 Mutant
Method in brief: as §1

BxPC-3 = conditions: Homo sapiens, Pancreas, TP53 Mutant
Method in brief: as §1

COLO 205 = conditions: Homo sapiens, Intestine, large, colon, TP53 Mutant
Method in brief: as §1

COLO-704 = conditions: Homo sapiens, Ovary, TP53 Wild type
Method in brief: as §1

Calu-1 = conditions: Homo sapiens, Lung, TP53 Wild type
Method in brief: as §1

Capan-1 = conditions: Homo sapiens, Pancreas, TP53 Mutant
Method in brief: as §1

Detroit 562 = conditions: Homo sapiens, Pharynx, TP53 Mutant
Method in brief: as §1

HCC1187 = conditions: Homo sapiens, Breast, mammary gland, TP53 Mutant
Method in brief: as §1

HCC1806 = conditions: Homo sapiens, Breast, mammary gland, TP53 Mutant
Method in brief: as §1

HMCB = conditions: Homo sapiens, Skin, TP53 Mutant
Method in brief: as §1

HT-1197 = conditions: Homo sapiens
Method in brief: as §1

HT-29 = conditions: Homo sapiens, Intestine, large, colon, TP53 Mutant
Method in brief: as §1

HUP-T4 = conditions: Homo sapiens, Pancreas, TP53 Mutant
Method in brief: as §1

KMS-20 = conditions: Homo sapiens, Lymphocyte, TP53 Mutant
Method in brief: as §1

LS513 = conditions: Homo sapiens
Method in brief: as §1

MDA-MB-134-VI = conditions: Homo sapiens, Breast, mammary gland, TP53 Mutant
Method in brief: as §1

MKN-1 = conditions: Homo sapiens, Muscle, smooth, stomach, TP53 Mutant
Method in brief: as §1

NCI-H1155 = conditions: Homo sapiens, Lung, TP53 Mutant
Method in brief: as §1

NCI-H1437 = conditions: Homo sapiens, Lung, TP53 Mutant
Method in brief: as §1

NCI-H1650 = conditions: Homo sapiens, Lung, TP53 Mutant
Method in brief: as §1

NCI-H187 = conditions: Homo sapiens, Lung, TP53 Mutant
Method in brief: as §1

NCI-H1944 = conditions: Homo sapiens, Lung, TP53 Wild type
Method in brief: as §1

NCI-H1975 = conditions: Homo sapiens, Lung, TP53 Mutant
Method in brief: as §1

NCI-H2009 = conditions: Homo sapiens, Lung, TP53 Mutant
Method in brief: as §1

NCI-H2030 = conditions: Homo sapiens, Lung, TP53 Mutant
Method in brief: as §1

NCI-H838 = conditions: Homo sapiens, Lung, TP53 Mutant
Method in brief: as §1

NUGC-4 = conditions: Homo sapiens
Method in brief: as §1

SK-MEL-1 = conditions: Homo sapiens
Method in brief: as §1

SW403 = conditions: Homo sapiens, SW-403, Intestine, large, colon, TP53 Mutant
Method in brief: as §1

SW480 = conditions: Homo sapiens, Intestine, large, colon, TP53 Mutant
Method in brief: as §1

T84 = conditions: Homo sapiens, Intestine, large, colon, TP53 Mutant
Method in brief: as §1

TF-1a = conditions: Homo sapiens, Bone marrow, TP53 Mutant
Method in brief: as §1

U-698-M = conditions: Homo sapiens, Tonsil, TP53 Mutant
Method in brief: as §1

UM-UC-3 = conditions: Homo sapiens, UMUC3, Urinary, bladder, TP53 Mutant
Method in brief: as §1

VCaP = conditions: Homo sapiens, Prostate, TP53 Mutant
Method in brief: as §1

CCOc1cc(C(C)(C)C)ccc1C1=N[C@@](C)(c2ccc(Cl)cc2)[C@@](C)(c2ccc(Cl)cc2)N1C(=O)N1CCN(CCCS(C)(=O)=O)CC1 [COMPOUND A]
IC50 (143B): 15 µM | IC50 (786-O): 9.5 µM | IC50 (A-431): 9.5 µM | IC50 (BT-20): 3.6 µM | IC50 (BxPC-3): 18 µM | IC50 (COLO 205): 9.1 µM | IC50 (COLO-704): 20 µM | IC50 (Calu-1): 14 µM | IC50 (Capan-1): 20 µM | IC50 (Detroit 562): 6.2 µM | IC50 (HCC1187): 12 µM | IC50 (HCC1806): 11 µM | IC50 (HMCB): 15 µM | IC50 (HT-1197; HT1197, HT-1197, Urinary, bladder, TP53 Wild type): 0.19 µM | IC50 (HT-1197; HT1197, HT-1197 cells): 0.2 µM | IC50 (HT-29): 7.4 µM | IC50 (HUP-T4): 17 µM | IC50 (KMS-20): 13 µM | IC50 (LS513; LS-513, LS513, Intestine, large, caecum, TP53 Wild type): 0.49 µM | IC50 (LS513; LS-513, LS513 cells): 0.5 µM | IC50 (MDA-MB-134-VI): 38 µM | IC50 (MKN-1): 15 µM | IC50 (NCI-H1155): 22 µM | IC50 (NCI-H1437): 10 µM | IC50 (NCI-H1650): 10 µM | IC50 (NCI-H187): 15 µM | IC50 (NCI-H1944): 7 µM | IC50 (NCI-H1975): 16 µM | IC50 (NCI-H2009): 9.9 µM | IC50 (NCI-H2030): 9.2 µM | IC50 (NCI-H838): 14 µM | IC50 (NUGC-4; NUGC-4, NUGC-4, Stomach, TP53 Wild type): 0.38 µM | IC50 (NUGC-4; NUGC-4, NUGC-4 cells): 0.4 µM | IC50 (SK-MEL-1; SK-MEL-1, SK-MEL-1, Skin, TP53 Wild type): 0.75 µM | IC50 (SK-MEL-1; SK-MEL-1, SK-MEL-1 cells): 0.8 µM | IC50 (SW403): 6 µM | IC50 (SW480): 12 µM | IC50 (T84): 5.3 µM | IC50 (TF-1a): 10 µM | IC50 (U-698-M): 9.8 µM | IC50 (UM-UC-3): 15 µM | IC50 (VCaP): 13 µM

— US9657351B2, “MRNA-based gene expression for personalizing patient cancer therapy with an MDM2 antagonist” (Hoffmann-La Roche Inc., priority 2013, dated 2017)
